The results in this text go back to patent publication US4302541A, “Process of producing optically active cephalosporin analogs by enzyme selective deacylation” (Kyowa Hakko Kogyo Co., Ltd., priority 1979, dated 1981).

A word on the MIC: it is the least concentration at which growth counts as inhibited.

In brackets after ≈: the same amount, converted by molar mass. Where two headings read alike, the source gives them in different places.

What all share (assay): Heart Infusion Agar Dilution Method (MIC)
Holding throughout (type): cell-based
A general note: In agar dilution, organisms are placed on agar that contains the substance at set levels.

Assay [1] deals with Escherichia coli NIHJC-2. The note with it: NIHJC2, pH 7.2.
Assay [2] deals with Proteus mirabilis 1287.
The test system of assay [3] is Klebsiella pneumoniae Y-60. The note with it: Y60, pH 7.2.
Assay [4] concerns Escherichia coli Juhl. The note with it: pH 7.2.
In assay [5] the test system is Staphylococcus epidermidis. The note with it: pH 7.2.
Assay [6] deals with Staphylococcus aureus 209-P. The note with it: pH 7.2.
Assay [7] concerns Serratia marcescens T-55. The note with it: T55, pH 7.2.
Assay [8] deals with Klebsiella pneumoniae 8045. The note with it: pH 7.2.
Assay [9] relates to Serratia marcescens T-26. The note with it: T26, pH 7.2.
The mark [10] stands for this setting: Staphylococcus aureus 209-P, Heart Infusion Agar Dilution Method, read-out: MIC.

Turning to `CC1=C(C(=O)O)N2C(=O)[C@@H](NC(=O)[C@H](N)c3ccccc3)[C@H]2SC1` [Cephalexin], the MIC in assay [1] was found to be 12.5 mg/L (≈ 36 µM); in [2] (Proteus mirabilis, 1287, pH 7.2) it was 25 mg/L (≈ 72 µM); in assay [3], 50 mg/L (≈ 144 µM); in assay [4] it was 12.5 mg/L (≈ 36 µM); in assay [5], 3.12 mg/L (≈ 8.98 µM); in [6] (Staphylococcus aureus, 209P), 0.2 mg/L (≈ 0.576 µM). It took 50 mg/L (≈ 144 µM) to inhibit growth in [7] (MIC).
As to `N[C@@H](C(=O)N[C@@H]1C(=O)N2C(C(=O)O)=C(Cl)CC[C@H]12)c1ccccc1` [Reference Example 2, (6R, 7S) 7-(R)-2-phenylglycinamido3-chloro-1-azabicyclo[4,2,0]oct-2-en-8-on-2-carboxylic acid], the MIC in assay [2] (Proteus mirabilis 1287, Heart Infusion Agar Dilution Method, pH 7.2, read-out: MIC) is 3.12 mg/L (≈ 8.92 µM); in assay [8] it was 0.2 mg/L (≈ 0.572 µM); in assay [9], greater than 100 mg/L; in assay [6] (setting [10]), 0.1 mg/L (≈ 0.286 µM).
For `Cc1nnc(SCC2=C(C(=O)O)N3C(=O)[C@@H](NC(=O)Cn4cnnn4)[C@H]3SC2)s1` [Cefazolin], the MIC in assay [1] is 1.56 mg/L (≈ 3.43 µM); in assay [4] it was 1.56 mg/L (≈ 3.43 µM); in assay [6] (setting [10]), no more than 0.05 mg/L.
